Data from publication PMC9616851, “Structural mechanism of SGLT1 inhibitors” (Nature Communications, 2022).

Target: T1, hSGLT1 (Homo sapiens, UniProt P13866)
T1 construct: gene SLC5A1; hSGLT1GFP-MAP17nb: GFP fused between Q581 and E582 of hSGLT1; anti-GFP nanobody fused after E57 of MAP17 (1-57); in nanodisc; with MAP17
T1 sequence (P13866 1-581): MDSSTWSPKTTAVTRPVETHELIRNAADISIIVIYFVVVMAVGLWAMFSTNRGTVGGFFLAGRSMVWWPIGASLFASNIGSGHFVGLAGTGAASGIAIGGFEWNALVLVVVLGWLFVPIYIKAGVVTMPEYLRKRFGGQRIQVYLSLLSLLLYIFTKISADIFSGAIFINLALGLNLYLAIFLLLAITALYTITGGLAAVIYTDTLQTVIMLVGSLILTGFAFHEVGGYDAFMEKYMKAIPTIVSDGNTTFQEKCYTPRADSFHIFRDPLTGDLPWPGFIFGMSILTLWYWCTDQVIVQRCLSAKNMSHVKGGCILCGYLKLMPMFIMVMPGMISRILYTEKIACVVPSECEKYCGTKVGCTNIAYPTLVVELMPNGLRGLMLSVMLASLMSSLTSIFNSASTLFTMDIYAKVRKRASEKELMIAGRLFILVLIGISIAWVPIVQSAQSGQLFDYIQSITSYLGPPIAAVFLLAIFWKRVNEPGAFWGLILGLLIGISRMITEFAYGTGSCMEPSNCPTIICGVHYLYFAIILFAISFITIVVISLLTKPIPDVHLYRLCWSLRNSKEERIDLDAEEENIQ
T1 sequence (P13866 582-664): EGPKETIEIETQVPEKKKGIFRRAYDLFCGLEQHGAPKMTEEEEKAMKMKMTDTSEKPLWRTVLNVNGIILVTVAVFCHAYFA
T1 sequence (Q13113 1-57 partner): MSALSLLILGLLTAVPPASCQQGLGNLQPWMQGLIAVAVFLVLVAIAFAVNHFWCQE
Test: cryo-EM structure at […] Å; 1-NBD-glucose uptake inhibition in cells (IC50 […] for this construct, […] for non-tagged hSGLT1)
Format: cell-based

IC50: 2.3 nM
SMILES: CS[C@H]1O[C@@H](c2ccc(C)c(Cc3ccc(CCCC(=O)NC(C)(C)C(=O)NCCN(C)C)cc3)c2)[C@H](O)[C@@H](O)[C@@H]1O [LX2761]
